The test system of data set [1] is Escherichia coli. The data set is described as follows: Antibacterial activity against Escherichia coli MG1655 assessed as bacterial growth inhibition measured after 20 hrs by CLSI protocol based broth microdilution method. The data set is classed as functional. On the technique in general: Dilution methods test growth across graded concentrations, often in twofold steps.

In data set [2] the test system is Staphylococcus aureus. The data set is described as follows: Antibacterial activity against Staphylococcus aureus ATCC 25923 assessed as bacterial growth inhibition measured after 20 hrs by CLSI protocol based broth microdilution method. It is filed as functional.
Data set [3] deals with Bacillus subtilis. The data set is described as follows: Antibacterial activity against Bacillus subtilis 168 assessed as diameter of zone of inhibition by agar plate diffusion method. It is filed as functional.
The test system of data set [4] is Escherichia coli. The data set is described as follows: Antibacterial activity against Escherichia coli assessed as zone of inhibition by plate agar diffusion method. It is filed as functional. A general note: A growth-free zone around the sample is the usual read-out of agar diffusion tests.
Data set [5] has as its system Bacillus subtilis. The data set is described as follows: Induction of morphological changes in Bacillus subtilis 168 assessed as immediate cell lysis at >8 ug/ml incubated for 120 mins by phase-contrast microscopic analysis. The note with it: dose > 8.0 µg/ml. The data set is classed as functional, organism-based.
Data set [6] has as its system Bacillus subtilis. As to the kind of experiment: Induction of morphological changes Bacillus subtilis 168 assessed as morphological changes by measuring cell lysis with cell debris and ghost cells at 3 times MIC incubated for 3 hr by phase-contrast microscopic analysis. The data set is classed as functional, organism-based.
The next data set concerns 3T3-L1. As to the kind of experiment: Cytotoxicity against mouse 3T3-L1 cells assessed as reduction in cell viability at 50 ug/ml measured after 24 to 72 hrs y MTT assay. The data set is classed as cell-based. The note with it: time 24-72 hrs, dose 50 µg/ml.
The subject of data set [7] is Bacillus subtilis. As to the kind of experiment: Induction of morphological changes in Bacillus subtilis 168 assessed as cell lysis at 2.5 to 3.5 times MIC incubated for 2 hrs by phase-contrast microscopic analysis. The data set is classed as functional, organism-based.
Data set [8] deals with Bacillus subtilis. The data set is described as follows: Bacteriostatic activity against Bacillus subtilis 168 assessed as reduction in bacterial growth measured after 20 hrs by CLSI protocol based broth microdilution method. It is filed as functional, organism-based.
Data set [9] has as its system Bacillus subtilis. As to the kind of experiment: Induction of morphological changes in Bacillus subtilis 168 assessed as bulbous distortion at 2.5 to 2.75 times MIC incubated for 3 hr by phase-contrast microscopic analysis. It is filed as functional, organism-based.
Data set [10] has as its system Bacillus subtilis. As to the kind of experiment: Antibacterial activity against Bacillus subtilis 168 assessed as bacterial growth inhibition measured after 20 hrs by CLSI protocol based broth microdilution method. It is filed as functional.
The subject of data set [11] is Bacillus subtilis. As to the kind of experiment: Induction of morphological changes in Bacillus subtilis 168 assessed as cell lysis at 2.5 to 3.5 times MIC incubated for 1 hr by phase-contrast microscopic analysis. The data set is classed as functional, organism-based.
Data set [12] deals with Staphylococcus aureus. As to the kind of experiment: Bacteriostatic activity against Staphylococcus aureus ATCC 25923 assessed as reduction in bacterial growth measured after 20 hrs by CLSI protocol based broth microdilution method. It is filed as functional, organism-based.
Data set [13] in a line: Cytotoxicity against mouse 3T3-L1 cells assessed as cell viability at 25 ug/ml measured up to 72 hrs y MTT assay relative to control. The data set is classed as cell-based. The note with it: at 25 µg/mL, read-out: Activity. A general note: Tetrazolium assays rely on reduction of a dye to a coloured formazan, in cell work by metabolically active cells.

The record followed here is ChEMBL document CHEMBL5055649, “Synthesis and biological evaluation of 3,5-substituted pyrazoles as possible antibacterial agents” (Bioorg Med Chem, 2021).

Each structure is given as a SMILES string. Converted amounts (≈) assume the structure as drawn. The source made the active and inactive calls.

As to `COc1ccc(-c2cc(-c3ccc(-c4ccc(Cl)cc4)cc3)n[nH]2)c(OC)c1`, the MIC95 in the data set with Escherichia coli [1] and in the data set on Staphylococcus aureus [2] was over 128 µg/mL throughout.

With `Clc1ccc(-c2ccc(-c3cc(-c4ccc(OCc5ccccc5)cc4)[nH]n3)cc2)cc1`, the MIC95 with Escherichia coli [1] and with Staphylococcus aureus [2] was over 128 µg/mL in each case.

For the molecule `COc1ccc(-c2cc(-c3ccc(-c4ccc(C(C)(C)C)cc4)cc3)n[nH]2)cc1OC`, the MIC95 with Escherichia coli [1] and with Staphylococcus aureus [2] was over 128 µg/mL in each case.

In the case of `COc1ccc(-c2cc(-c3ccc(-c4ccccc4)cc3)n[nH]2)cc1OC`, the “diameter of the inhibition zone (DIZ)” value came out at 13 mm in the data set with Bacillus subtilis [3] and 20 mm in the data set with Escherichia coli [4]. Besides, the MIC95 in the data set with Escherichia coli [1] and in the data set with Staphylococcus aureus [2] was over 128 µg/mL each time.

`CC(C)(C)c1ccc(-c2ccc(-c3cc(-c4ccc(OCc5ccccc5)cc4)[nH]n3)cc2)cc1`: the MIC95 with Escherichia coli [1] and in the data set on Staphylococcus aureus [2] was over 128 µg/mL in each case.

In the case of `COc1ccc(-c2cc(-c3ccc(-c4ccccc4)cc3)n[nH]2)cc1`, the MIC95 in the data set with Escherichia coli [1] and with Staphylococcus aureus [2] was over 128 µg/mL each time.

On to `COc1ccc(OC)c(-c2cc(-c3ccc(-c4ccccc4)cc3)n[nH]2)c1`, for which the MIC95 in the data set on Escherichia coli [1] and in the data set on Staphylococcus aureus [2] was over 128 µg/mL throughout.

In the case of `COc1cc(-c2cc(-c3ccc(-c4ccc(Cl)cc4)cc3)n[nH]2)ccc1OCc1ccccc1`, the MIC95 in the data set with Escherichia coli [1] and with Staphylococcus aureus [2] was over 128 µg/mL each time.

Consider `Oc1cccc(-c2cc(-c3ccc(-c4ccccc4)cc3)n[nH]2)c1`, for which the MIC95 with Escherichia coli [1] and with Staphylococcus aureus [2] was over 128 µg/mL in each case.

As for `COc1cc(-c2cc(-c3ccc(-c4ccccc4)cc3)n[nH]2)ccc1O`, the outcome with Bacillus subtilis [5] was inactive. For the same molecule, the result in the data set with Bacillus subtilis [6], in the data set on Bacillus subtilis [7], with Bacillus subtilis [8], in the data set with Bacillus subtilis [9], with Bacillus subtilis [11] and in the data set with Staphylococcus aureus [12] was Active. Besides, the Activity entry in the data set with 3T3-L1 is “Non-Toxic”. The MIC (usually the smallest concentration in the dilution series that meets the test's criterion for growth inhibition) in the data set on Bacillus subtilis [10] was determined as 8 µg/mL (≈ 23.4 µM). The MIC95 is over 128 µg/mL with Escherichia coli [1] and 8 µg/mL (≈ 23.4 µM) with Staphylococcus aureus [2].

Consider `Clc1ccc(-c2ccc(-c3cc(-c4cccc(OCc5ccccc5)c4)[nH]n3)cc2)cc1`, for which the MIC95 in the data set on Escherichia coli [1] and with Staphylococcus aureus [2] was over 128 µg/mL in each case.

For the molecule `COc1ccc(OC)c(-c2cc(-c3ccc(-c4ccc(C(C)(C)C)cc4)cc3)n[nH]2)c1`, the MIC95 with Escherichia coli [1] and in the data set with Staphylococcus aureus [2] was over 128 µg/mL throughout.

`COc1ccc(OC)c(-c2cc(-c3ccc(-c4ccc(Cl)cc4)cc3)n[nH]2)c1`: the MIC95 in the data set on Escherichia coli [1] and in the data set on Staphylococcus aureus [2] was over 128 µg/mL in each case.

Take `COc1ccc(-c2cc(-c3ccc(-c4ccc(C(C)(C)C)cc4)cc3)n[nH]2)cc1`: the MIC95 in the data set on Escherichia coli [1] and in the data set on Staphylococcus aureus [2] was over 128 µg/mL each time.

For `COc1ccc(-c2cc(-c3ccc(-c4ccc(Cl)cc4)cc3)n[nH]2)cc1`, the MIC95 with Escherichia coli [1] and with Staphylococcus aureus [2] was over 128 µg/mL each time.

In the case of `COc1cc(-c2cc(-c3ccc(C(C)(C)C)cc3)n[nH]2)ccc1O`, the viability at 72 h, 25 ug/ml in data set [13] was 85%. In addition, the result in the data set on Bacillus subtilis [8] and in the data set on Staphylococcus aureus [12] was Active. For the same molecule, the minimum inhibitory concentration (MIC) in the data set with Bacillus subtilis [10] came to 16 µg/mL (≈ 49.6 µM). Besides, the MIC95 was over 128 µg/mL in the data set with Escherichia coli [1] and 32 µg/mL (≈ 99.3 µM) in the data set with Staphylococcus aureus [2].

Turning to `COc1ccc(-c2cc(-c3ccc(-c4ccc(Cl)cc4)cc3)n[nH]2)cc1OC`, the MIC95 in the data set on Escherichia coli [1] and with Staphylococcus aureus [2] was over 128 µg/mL each time.
